Source: EP0821692B1, “IMMUNOPOTENTIATING INOSINE MONOPHOSPHATE 5'-NUCLEOTIDASE RESISTANT DERIVATIVES AND USES THEREOF” (UNIVERSITY OF SOUTH FLORIDA, priority 1995, dated 1996)

What was measured:
5'-nucleotidase = conditions: Crotalus atrox, pH 7.3
[1] = in vivo; cited from earlier work

Molecule	Hydrolysis (%) (5'-nucleotidase)	half-life [1]
Nc1ncnc2c1ncn2[C@@H]1O[C@H](COP(=O)(O)O)[C@@H](O)[C@H]1O [Adenosine MP, adenosine-5'-monophosphate]	86.0%	
isoprinosine		less than four hours
